Test results reported in patent US12012403B2, “Aryl sulfonyl compounds as CCR6 inhibitors” (CHEMOCENTRYX, INC., priority 2021, dated 2024).

molecular target: T1, human CCR6 (Homo sapiens, UniProt P51684); assay: Migration (chemotaxis) assay, hCCR6-transfected Ba/F3 cells toward CCL20; format: cell-based; settings: hCCR6-transfected Ba/F3 cells in human serum; recombinant human CCL20 10 nM; 37° C. 45 minutes; read-out: Potency (IC50 value in the migration assay)
T1 construct: expressed in transfected cells; host or cells: Ba/F3 cells (murine pro-B line), hCCR6-transfected, CMV promoter, sodium butyrate induction
T1 sequence (P51684 1-374): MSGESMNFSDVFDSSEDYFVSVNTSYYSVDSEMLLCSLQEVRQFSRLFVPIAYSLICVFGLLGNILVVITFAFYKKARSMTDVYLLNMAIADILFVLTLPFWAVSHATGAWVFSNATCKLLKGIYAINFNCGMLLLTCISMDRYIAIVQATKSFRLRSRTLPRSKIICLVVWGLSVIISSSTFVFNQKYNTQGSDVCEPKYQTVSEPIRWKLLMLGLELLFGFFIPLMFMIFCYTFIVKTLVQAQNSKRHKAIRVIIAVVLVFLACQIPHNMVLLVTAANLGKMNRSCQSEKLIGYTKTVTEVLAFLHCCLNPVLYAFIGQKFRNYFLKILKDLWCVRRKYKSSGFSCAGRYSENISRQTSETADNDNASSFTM
Procedure, shortened: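 Ba/F3 cells stably transfected with human CCR6 (CMV promoter), pre-induced 24 hr with sodium butyrate, suspended at 4 million/ml in human serum with test compound serially diluted from 10 μM final. Migration through 5-μm polycarbonate membrane toward 10 nM CCL20 (EC50) for 45 min at 37 °C; migrated cells quantified by CyQUANT fluorescence.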

Row | IC50 [nM] | SMILES
1 | 5 to 100 | N#Cc1cn(CCN)c2ncc(-c3ccc(S(=O)(=O)N4CCC(Nc5ccc(C(F)(F)F)cn5)CC4)cc3)cc12 [Example 1.013]
2 | < 5 | Cn1nc(C(N)=O)c2cc(-c3ccc(S(=O)(=O)N4CCC(Nc5ccc(C(F)(F)F)cn5)CC4)cc3)ccc21 [Example 1.090]
3 | 5 to 100 | O=S(=O)(c1ccc(-c2ccc3[nH]ncc3c2)cc1)N1CCC(Nc2ccc(C(F)(F)F)cn2)CC1 [Example 1.096]
4 | 5 to 100 | NC(=O)C1CN(c2ccc(S(=O)(=O)N3CCC(Nc4ccc(C(F)(F)F)cn4)CC3)cc2)CCO1 (stereo not drawn) [Example 1.202]
5 | 100 to 10000 | NC(=O)CC1CCCN(c2ccc(S(=O)(=O)N3CCC(Nc4ccc(C(F)(F)F)cn4)CC3)cc2)C1 (stereo not drawn) [Example 1.138]
6 | 5 to 100 | CC1(O)CCN(c2ccc(S(=O)(=O)N3CCC(Nc4ccc(C(F)(F)F)cn4)CC3)cc2)CC1 [Example 1.182]
7 | 5 to 100 | NC(=O)N1CC(C2CN(c3ccc(S(=O)(=O)N4CCC(Nc5ccc(C(F)(F)F)cn5)CC4)cc3)C2)C1 [Example 1.145]
8 | 5 to 100 | CC(=O)NC1CC2(C1)CN(c1ccc(S(=O)(=O)N3CCC(Nc4ccc(C(F)(F)F)cn4)CC3)cc1)C2 [Example 1.163]
9 | 5 to 100 | CS(=O)(=O)NC1CC2(C1)CN(c1ccc(S(=O)(=O)N3CCC(Nc4ccc(C(F)(F)F)cn4)CC3)cc1)C2 [Example 1.161]
10 | 5 to 100 | O=C1COC2(CCN(c3ccc(S(=O)(=O)N4CCC(Nc5ccc(C(F)(F)F)cn5)CC4)cc3)CC2)CN1 [Example 1.147]
11 | < 5 | O=C1Nc2ccc(-c3ccc(S(=O)(=O)N4CCC(Nc5ccc(C(F)(F)F)cn5)CC4)cc3)cc2C12CCOCC2 [Example 1.036]
12 | < 5 | O=C1Cc2cc(-c3ccc(S(=O)(=O)N4CCC(Nc5ccc(C(F)(F)F)cn5)CC4)cc3)ccc2CN1 [Example 1.012]
13 | < 5 | O=c1[nH]ncc2cc(-c3ccc(S(=O)(=O)N4CCC(Nc5ccc(C(F)(F)F)cn5)CC4)cc3)ccc12 [Example 1.059]
14 | < 5 | Nc1nc2ccc(-c3ccc(S(=O)(=O)N4CCC(Nc5ccc(C(F)(F)F)cn5)CC4)cc3)cc2o1 [Example 1.086]
15 | 5 to 100 | N#Cc1ccc2nc(-c3ccc(S(=O)(=O)N4CCC(Nc5ccc(C(F)(F)F)cn5)CC4)cc3)sc2c1 [Example 1.060]
16 | < 5 | CC(=O)N1Cc2ccc(-c3ccc(S(=O)(=O)N4CCC(Nc5ccc(C(F)(F)F)cn5)CC4)cc3)cc2C1 [Example 1.053]
17 | < 5 | CNc1n[nH]c2ncc(-c3ccc(S(=O)(=O)N4CCC(Nc5ccc(C(F)(F)F)cn5)CC4)cc3)cc12 [Example 1.049]
18 | 5 to 100 | O=S(=O)(c1ccc(N2CC[C@H](O)[C@@H](CO)C2)cc1)N1CCC(Nc2ccc(C(F)(F)F)cn2)CC1 [Example 1.181]
19 | 100 to 10000 | O=S(=O)(c1ccc(-c2ccc3c(c2)CCC3)cc1)N1CCC(Nc2ccc(C(F)(F)F)cn2)CC1 [Example 1.120]
20 | 5 to 100 | N#Cc1c[nH]c2ccc(-c3ccc([S@](=N)(=O)N4CCC(Nc5ccc(C(F)(F)F)cn5)CC4)cc3)cc12 [Example 1.103]

Row | IC50 [nM] | SMILES
21 | 5 to 100 | O=S(=O)(c1ccc(N2CCOCC2)cc1)N1CCC(Nc2ccc(C(F)(F)F)cn2)CC1 [Example 1.129]
22 | 5 to 100 | NC(=O)N1CCC2(CCN(c3ccc(S(=O)(=O)N4CCC(Nc5ccc(C(F)(F)F)cn5)CC4)cc3)C2)C1 (stereo not drawn) [Example 1.175]
23 | 5 to 100 | O=C1CCc2cc(-c3ccc(S(=O)(=O)N4CCC(Nc5ccc(C(F)(F)F)cn5)CC4)cc3)ccc2N1 [Example 1.078]
24 | 5 to 100 | O=S(=O)(c1ccc(-c2ccc3c(c2)C2(CCOCC2)CN3)cc1)N1CCC(Nc2ccc(C(F)(F)F)cn2)CC1 [Example 1.034]
25 | 5 to 100 | O=c1[nH]c2ncc(-c3ccc(S(=O)(=O)N4CCC(Nc5ccc(C(F)(F)F)cn5)CC4)cc3)cc2o1 [Example 1.065]
26 | 100 to 10000 | O=S(=O)(c1ccc(N2CCn3ccnc3C2)cc1)N1CCC(Nc2ccc(C(F)(F)F)cn2)CC1 [Example 1.229]
27 | 5 to 100 | O=C1NS(=O)(=O)c2ccc(-c3ccc(S(=O)(=O)N4CCC(Nc5ccc(C(F)(F)F)cn5)CC4)cc3)cc21 [Example 1.063]
28 | 100 to 10000 | CC(C)(C)OC(=O)N[C@H]1CCN(c2ccc(S(=O)(=O)N3CCC(Nc4ccc(C(F)(F)F)cn4)CC3)cc2)C1 [Example 1.218]
29 | 100 to 10000 | O=S(=O)(c1ccc(-c2nc3c(s2)CNCC3)cc1)N1CCC(Nc2ccc(C(F)(F)F)cn2)CC1 [Example 1.106]
30 | 5 to 100 | NC(=O)CC1CCN(c2ccc(S(=O)(=O)N3CCC(Nc4ccc(C(F)(F)F)cn4)CC3)cc2)CC1 [Example 1.167]
31 | < 5 | NC(=O)N1CC2(C1)CN(c1ccc(S(=O)(=O)N3CCC(Nc4ccc(C(F)(F)F)cn4)CC3)cc1)C2 [Example 1.154]
32 | 5 to 100 | O=S(=O)(c1ccc(N2CCc3[nH]ncc3C2)cc1)N1CCC(Nc2ccc(C(F)(F)F)cn2)CC1 [Example 1.214]
33 | 5 to 100 | O=S(=O)(c1ccc(-c2ccc3[nH]nc(C(F)(F)F)c3c2)cc1)N1CCC(Nc2ccc(C(F)(F)F)cn2)CC1 [Example 1.087]
34 | 100 to 10000 | O=C1CN(c2ccc(S(=O)(=O)N3CCC(Nc4ccc(C(F)(F)F)cn4)CC3)cc2)CCN1 [Example 1.211]
35 | 5 to 100 | N=[S@](=O)(c1ccc(-c2ccc3[nH]cnc3c2)cc1)N1CCC(Nc2ccc(C(F)(F)F)cc2)CC1 [Example 1.104]
36 | 5 to 100 | Cc1nc2c(s1)CN(c1ccc(S(=O)(=O)N3CCC(Nc4ccc(C(F)(F)F)cn4)CC3)cc1)CC2 [Example 1.221]
37 | 5 to 100 | CC(=O)NCC1CCN(c2ccc(S(=O)(=O)N3CCC(Nc4ccc(C(F)(F)F)cn4)CC3)cc2)CC1 [Example 1.140]
38 | 5 to 100 | NC(=O)c1ccc(-c2ccc(S(=O)(=O)N3CCC(Nc4ccc(C(F)(F)F)cn4)CC3)cc2)c2cc[nH]c12 [Example 1.061]
39 | 5 to 100 | O=S(=O)(c1ccc(N2CCC[C@H](O)C2)cc1)N1CCC(Nc2ccc(C(F)(F)F)cn2)CC1 [Example 1.198]
40 | 5 to 100 | CC(C)(C)OC(=O)NCC1CN(c2ccc(S(=O)(=O)N3CCC(Nc4ccc(C(F)(F)F)cn4)CC3)cc2)C1 [Example 1.143]

Row | IC50 [nM] | SMILES
41 | 5 to 100 | O=S(=O)(c1ccc(-c2ccc3c(c2)NCCO3)cc1)N1CCC(Nc2ccc(C(F)(F)F)cn2)CC1 [Example 1.035]
42 | 100 to 10000 | O=S(=O)(c1ccc(N2CCN3C[C@H](O)C[C@H]3C2)cc1)N1CCC(Nc2ccc(C(F)(F)F)cn2)CC1 (racemic) [Example 1.178]
43 | < 5 | O=C1NCc2cc(-c3ccc(S(=O)(=O)N4CCC(Nc5ccc(C(F)(F)F)cn5)CC4)cc3)ccc21 [Example 1.117]
44 | < 5 | O=C1Nc2ccc(-c3ccc(S(=O)(=O)N4CCC(Nc5ccc(C(F)(F)F)cn5)CC4)cc3)cc2C12CC2 [Example 1.051]
45 | 5 to 100 | CS(=O)(=O)N1CCN(c2ccc(S(=O)(=O)N3CCC(Nc4ccc(C(F)(F)F)cn4)CC3)cc2)CC1 [Example 1.200]
46 | 5 to 100 | CNC(=O)CC1CCN(c2ccc(S(=O)(=O)N3CCC(Nc4ccc(C(F)(F)F)cn4)CC3)cc2)CC1 [Example 1.135]
47 | < 5 | N#Cc1n[nH]c2ccc(-c3ccc(S(=O)(=O)N4CCC(Nc5ccc(C(F)(F)F)cn5)CC4)cc3)cc12 [Example 1.055]
48 | 5 to 100 | Nc1n[nH]c2ncc(-c3ccc(S(=O)(=O)N4CCC(Nc5ccc(C(F)(F)F)cn5)CC4)cc3)nc12 [Example 1.017]
49 | 5 to 100 | O=c1[nH]c2ccc(-c3ccc(S(=O)(=O)N4CCC(Nc5ccc(C(F)(F)F)cn5)CC4)cc3)cc2n1C1CC1 [Example 1.052]
50 | < 5 | O=C1NCCC12CCN(c1ccc(S(=O)(=O)N3CCC(Nc4ccc(C(F)(F)F)cn4)CC3)cc1)CC2 [Example 1.172]
51 | < 5 | Cn1nc(N)c2cc(-c3ccc(S(=O)(=O)N4CCC(Nc5ccc(C(F)(F)F)cn5)CC4)cc3)ccc21 [Example 1.046]
52 | 100 to 10000 | O=C1NC[C@@H]2CCN(c3ccc(S(=O)(=O)N4CCC(Nc5ccc(C(F)(F)F)cn5)CC4)cc3)C[C@H]12 (racemic) [Example 1.169]
53 | < 5 | N#Cc1c(N)[nH]c2ccc(-c3ccc(S(=O)(=O)[C@H]4CC[C@H](Nc5ccc(C(F)(F)F)cn5)CC4)cc3)cc12 [Example 1.070]
54 | 5 to 100 | O=C1CC2(CCN(c3ccc(S(=O)(=O)N4CCC(Nc5ccc(C(F)(F)F)cn5)CC4)cc3)CC2)C(=O)N1 [Example 1.149]
55 | 5 to 100 | CS(=O)(=O)NCC1CCN(c2ccc(S(=O)(=O)N3CCC(Nc4ccc(C(F)(F)F)cn4)CC3)cc2)CC1 [Example 1.141]
56 | 100 to 10000 | O=C1CNC(=O)C2(CCN(c3ccc(S(=O)(=O)N4CCC(Nc5ccc(C(F)(F)F)cn5)CC4)cc3)CC2)N1 [Example 1.139]
57 | 100 to 10000 | O=C1CO[C@@H]2CCN(c3ccc(S(=O)(=O)N4CCC(Nc5ccc(C(F)(F)F)cn5)CC4)cc3)C[C@@H]2N1 (racemic) [Example 1.170]
58 | < 5 | NC(=O)c1cc(-c2ccc(S(=O)(=O)N3CCC(Nc4ccc(C(F)(F)F)cn4)CC3)cc2)cc2c1NC(=O)C2 [Example 1.005]
59 | < 5 | N#Cc1cn(CCNC(N)=O)c2ncc(-c3ccc(S(=O)(=O)N4CCC(Nc5ccc(C(F)(F)F)cn5)CC4)cc3)cc12 [Example 1.003]

Row | SMILES | IC50 [nM]
60 | CN1CCC2(CC1)C(=O)Nc1ccc(-c3ccc(S(=O)(=O)N4CCC(Nc5ccc(C(F)(F)F)cn5)CC4)cc3)cc12 [Example 1.006] | 100 to 10000
